In publication PMC11477194, “3-Alkoxy-1-Benzyl-5-Nitroindazole Derivatives Are Potent Antileishmanial Compounds” (International Journal of Molecular Sciences, 2024):
Like-named read-outs stand apart in the source and are kept apart here.

Tests used:
[1] = Cytotoxicity in mouse peritoneal macrophages (resazurin); type: cell-based; details: concentration that causes lysis of 50% of BALB/c mouse peritoneal macrophages
Protocol: To obtain peritoneal macrophages, the mice were sacrificed by cervical dislocation, and the resident cells in the peritoneum were extracted by washing with RPMI (Roswell Park Memorial Institute, Buffalo, NY, USA) medium and cold (4 °C) supplemented with 10% FBS and antibiotics (sodium penicillin 200 IU/mL and streptomycin 200 μg/mL). Cell concentration was calculated using Neubauer chamber counts in an optical microscope (Motic, Xiamen, China) with a 40× objective and 10× eyepieces (400× magnification).
Cytotoxicity in mouse peritoneal macrophages: Peritoneal macrophages were adjusted to 10^5 macrophages/mL, and 200 μL was seeded per well in a 96-well plate and incubated at 33 °C and 5% CO2 for 2 h. Subsequently, the non-attached cells were discarded, and the monolayer was washed with PBS. The compounds were tested in serial dilutions of 1/2.5 (650–1.0 μM). The treated cultures were incubated for 48 h at 33 °C in a humidified atmosphere containing 5% CO2.
(§1) Every concentration of the test compounds was assessed in quadruplicate.
(§2) Cell viability was assessed using the resazurin transformation method. After the incubation period, 20 μL of 3 mM resazurin solution prepared in sterile PBS was added to each well. Reading was performed at 540 nm excitation and 590 nm emission wavelengths after 8 h of incubation in a 96-well plate reader (SUMA®, Habana, Cuba). The mean fluorescence intensity was calculated for each concentration. From the mean values of fluorescence and the corresponding product concentrations, a non-linear fit to the Emax sigmoid model was performed, and the mean inhibitory concentrations (IC50), mean effective concentrations (EC50), and the mean cytotoxic concentration (CC50) were estimated. The selectivity index was calculated as SIp = CC50/IC50 and SIa = CC50/EC50 for the promastigote and amastigote stages, respectively.

[2] = tested on: L. amazonensis promastigotes; assay: Susceptibility assay in promastigotes, L. amazonensis; type: cell-based; details: 72 h, read-out: IC50 ± SD
Source text: (§3) The strains used in this research were MHOM/BR/77/LTB0016 of L. amazonensis from the Pedro Kouri Institute of Tropical Medicine Cuba strains collection, MHOM/FR/78/LEM75 of L. infantum from the Department of Parasitology, Faculty of Pharmacy of the Complutense University of Madrid Spain, and MNYC/BZ/62/M379 of L. mexicana from the Laboratory of Molecular Immunobiochemistry and Heart Diseases UNAM-INC Mexico Research Unit. The parasites were obtained from the skin lesions of previously infected BALB/c mice and maintained at 26 °C in Schneider medium (SIGMA, St. Louis, MO, USA) and supplemented with antibiotics (penicillin sodium 200 IU/mL and streptomycin 200 μg/mL SIGMA, St. Louis, MO, USA) and 10% fetal bovine serum (FBS, SIGMA, St. Louis, MO, USA), and inactivated with heat (56 °C, 30 min). The promastigotes, once isolated, were kept in the exponential multiplication phase by successive subcultures every 3 or 4 days until the time of use.
(§4) Susceptibility assay in promastigotes: Promastigotes culture in the exponential growth phase were seeded in 96-well plates (10^6 parasites/mL) at a final volume of 200 μL/well. Compounds were tested in serial 1/2.5 dilutions (130–0.2 μM). The treated cultures were incubated for 72 h at 26 °C.
as §1, §2

[3] = tested on: L. infantum promastigotes; assay: Susceptibility assay in promastigotes, L. infantum; type: cell-based; details: 72 h, read-out: IC50 ± SD
Source text: as §3, §4, §1, §2

[4] = tested on: L. mexicana promastigotes; assay: Susceptibility assay in promastigotes, L. mexicana; type: cell-based; details: 72 h
Source text: as §3, §4, §1, §2

[5] = tested on: L. amazonensis intracellular amastigotes; assay: Intracellular amastigote assay, L. amazonensis; type: cell-based; details: read-out: EC50 ± SD
Source text: as §3
(§5) Intracellular amastigote assay: Macrophages were seeded in 96-well plates at an initial density of 10^5 cells/mL in a final volume of 200 µL per well. After 2 h of incubation at 33 °C and 5% CO2, the cell monolayer was infected with a culture of promastigotes in the stationary phase of growth at a ratio of 10:1 (promastigotes: macrophages) and incubated under the same conditions for 4 h. The compounds were tested in serial dilutions of 1/2.5 (15–0.02 μM). The treated cultures were then incubated for 48 h under similar conditions. After incubation, the RPMI medium was removed and replaced with Schneider’s medium. Cultures were incubated for 72 h at 26 °C to allow the surviving amastigotes to transform into promastigotes and replicate.
as §1, §2

[6] = tested on: L. infantum intracellular amastigotes; assay: Intracellular amastigote assay, L. infantum; type: cell-based; details: read-out: EC50 ± SD
Source text: as §3, §5, §1, §2

[7] = tested on: L. mexicana intracellular amastigotes; assay: Intracellular amastigote assay, L. mexicana; type: cell-based; details: Leishmania mexicana, read-out: EC50 ± SD, intracellular amastigotes, L. mexicana
Source text: as §3, §5, §1, §2

Leishmania spp. [8] = details: promastigote stage, drug used in the clinic; cited from earlier work
[9] = tested on: amastigotes of L. amazonensis; details: cited from earlier work
Leishmania spp. [10] = assay: Antileishmanial activity, species not separated (pooled statement or literature); type: cell-based; details: all Leishmania species; active = IC50 ≤ 1 μM and SI ≥ 10
[11] = tested on: promastigotes of L. amazonensis; assay: Scanning and transmission electron microscopy of treated promastigotes; type: cell-based
Source text: The concentrations of compounds selected for the study of structural and ultrastructural damage were those corresponding to IC50, ½ IC50, and ¼ IC50 for compound NV8 (reported in this study) and the previously reported compound VATR 131 [21]. The procedure for the treatment of cultures was the same as that described above for the in vitro tests on promastigotes of L. amazonensis. Two negative controls were used: a DMSO-treated culture (0.1%) and an untreated culture.
At the end of the exposure to the compounds, the parasites were washed once with PBS and immediately fixed with 2.5% glutaraldehyde in PBS for 1 h at room temperature. After a thorough wash with PBS, the parasites were fixed with 1% OsO4 in PBS at 4 °C for 1 h and then washed with PBS. The parasites were dehydrated in increasing concentrations of ethanol. Drying was carried out at the critical point of CO2 in a Samdry 780 apparatus (USA). Next, they were evaporated with gold in a Denton Vacuum Desk (USA). Finally, the samples were observed and micrographed using a JSM 6510LB-JEOL microscope at 30 keV.
Promastigotes were washed with PBS and fixed with 2.5% glutaraldehyde solution for 1 h at 4 °C. They were then fixed with a solution of 1% OsO4 in the same buffer at 4 °C and in darkness for 1 h. Promastigotes were washed with PBS at RT and dehydrated in an ethanolic solution in increasing order by up to 100%. They were then included in the epoxy resin using specific molds for polymerization and maintained at 60 °C for a minimum period of 72 h. The blocks were cut with an ultramicrotome (Reichert Jung, Austria) into thin sections. The slices were stained with uranyl acetate and lead citrate and subsequently micrographed using a JEM 1400 transmission electron microscope (JEOL, Ltd., Tokyo, Japan).

[12] = Leishmania mexicana, read-out: IC50 ± SD, promastigotes, L. mexicana, 72 h
[13] = BALB/c, mouse, peritoneal macrophages
[14] = Leishmania amazonensis, promastigotes, L. amazonensis
[15] = Leishmania infantum, promastigotes, L. infantum
[16] = Leishmania amazonensis, intracellular amastigotes, L. amazonensis
[17] = Leishmania infantum, intracellular amastigotes, L. infantum
[18] = intracellular amastigotes, L. infantum

| SMILES | IC50 [4, 12] [µM] | EC50 [7] [µM] | CC50 at 48 h [1, 13] [µM] | IC50 [2, 14] [µM] | IC50 [3, 15] [µM] | EC50 [6, 17] [µM] | also measured |
| --- | --- | --- | --- | --- | --- | --- | --- |
| C[C@@H]1[C@H](O)[C@@H](C)/C=C/C=C/C=C/C=C/C=C/C=C/C=C/[C@H](O[C@@H]2O[C@H](C)[C@@H](O)[C@H](N)[C@@H]2O)C[C@@H]2O[C@](O)(C[C@@H](O)C[C@@H](O)[C@H](O)CC[C@@H](O)C[C@@H](O)CC(=O)O[C@H]1C)C[C@H](O)[C@H]2C(=O)O [AmB, Amphotericin B, reference compound] | 0.046 ± 0.012 | 0.036 ± 0.008 | – | – | – | – | CC50 at 48 h [1]: 5.8 ± 0.5 µM; IC50 ([2]; Leishmania amazonensis): 0.03 ± 0.01 µM; IC50 ([3]; Leishmania infantum): 0.28 ± 0.01 µM; EC50 ([5]; Leishmania amazonensis): 0.034 ± 0.006 µM; EC50 ([6]; Leishmania infantum): 0.6 ± 0.21 µM |
| CCCCCCCCCCCCCCCCOP(=O)([O-])OCC[N+](C)(C)C [miltefosine] | – | – | – | – | – | – | IC50 (Leishmania spp. [8]): 50.7 µM |
| c1ccc2ncccc2c1 [quinoline] | – | – | – | – | – | – | EC50 [9]: 0.54 µM |
| CNCCCCCOc1nn(Cc2ccccc2)c2ccc([N+](=O)[O-])cc12 [NV15] | – | 1.53 ± 0.13 | 5.6 ± 2.5 | 1.88 ± 1.34 | 1.27 ± 0.06 | – | – |
| CNCCOc1nn(Cc2ccccc2)c2ccc([N+](=O)[O-])cc12 [NV13] | – | 11.6 ± 0.7 | 61.4 ± 9.4 | ≤ 1 | – | 16.2 ± 0.54 | IC50 ([2]; promastigotes, L. amazonensis): 0.82 ± 0.27 µM; EC50 [5, 16]: 5.66 ± 0.53 µM |
| NCCCCCOc1nn(Cc2ccccc2)c2ccc([N+](=O)[O-])cc12 [NV17] | 2.9 ± 0.1 | – | 7.74 ± 3 | 1.01 ± 0.39 | – | 11.8 ± 1.04 | – |
| NCCOc1nn(Cc2ccccc2)c2ccc([N+](=O)[O-])cc12 [NV10] | 4.5 ± 0.5 | – | 46.7 ± 7.7 | ≤ 1 | ≤ 1 | – | IC50 ([2]; promastigotes, L. amazonensis): 0.99 ± 0.14 µM; IC50 ([3]; promastigotes, L. infantum): 0.93 ± 0.27 µM; EC50 [5, 16]: ≤ 5 µM; EC50 ([5]; intracellular amastigotes, L. amazonensis): 4.35 ± 0.9 µM |
| N=C(N)c1ccc(OCCCCCOc2ccc(C(=N)N)cc2)cc1 [pentamidine] | – | – | – | – | – | – | IC50 (Leishmania spp. [8]): 30 µM |
| NCCCOc1nn(Cc2ccccc2)c2ccc([N+](=O)[O-])cc12 [NV9] | 2.8 ± 3 | – | 47.9 ± 10.4 | ≤ 1 | ≤ 1 | 9.71 ± 0.4 | IC50 ([2]; promastigotes, L. amazonensis): 0.81 ± 0.17 µM; IC50 ([3]; promastigotes, L. infantum): 0.59 ± 0.16 µM |
| O=[N+]([O-])c1ccc2c(c1)c(OCCBr)nn2Cc1ccccc1 [NV11] | 9.38 ± 0.13 | – | – | 20.7 ± 1.38 | 20.4 ± 1.3 | – | Classification against promastigotes (Leishmania spp. [10]): inactive |
| CN(C)CCCCCOc1nn(Cc2ccccc2)c2ccc([N+](=O)[O-])cc12 [NV14] | – | 8.2 ± 0.2 | 2.5 ± 0.7 | 0.5 ± 0.22 | 0.93 ± 0.18 | – | – |
| O=[N+]([O-])c1ccc2c(c1)c(OCCCCCN1CCCCC1)nn2Cc1ccccc1 [NV16] | ≤ 1 | 4.29 ± 0.48 | 21.1 ± 7.1 | – | 1.41 ± 0.03 | – | IC50 ([4]; read-out: IC50 ± SD, promastigotes, L. mexicana): 0.5 ± 0.1 µM |
| C[C@@H](c1nc(-c2ccc(C#N)cc2)cs1)[C@](O)(Cn1cncn1)c1ccc(F)cc1F [ravuconazole] | – | – | – | – | – | – | EC50 [9]: 5.11 µM |
| O=[N+]([O-])c1ccc2c(c1)c(OCCCCCBr)nn2Cc1ccccc1 [NV12] | 2.8 ± 1.1 | – | – | 2.88 ± 1.47 | 32.96 ± 0.25 | – | Classification against promastigotes (Leishmania spp. [10]): inactive |
| O=[N+]([O-])c1ccc2c(c1)c(OCCCN1CCCCC1)nn2Cc1ccccc1 [NV8] | – | – | 23.2 ± 5 | – | – | – | Structural damage, scanning electron microscopy ([11]; L. amazonensis promastigotes treated at IC50, ½ IC50, ¼ IC50): the bodies were completely swollen and spheroidal in appearance; Ultrastructural damage, transmission electron microscopy ([11]; L. amazonensis promastigotes, 72 h of incubation at IC50, ½ IC50, ¼ IC50): most of the parasites are atypical; many are swollen or deformed and present large cytosolic vacuoles |
| CN(C)CCCOc1nn(Cc2ccccc2)c2ccc([N+](=O)[O-])cc12 [NV6] | – | – | 61 ± 6.9 | – | ≤ 1 | ≤ 5 | IC50 ([3]; promastigotes, L. infantum): 0.69 ± 0.063 µM; EC50 [6, 18]: 3.79 ± 1.46 µM |
| O=[N+]([O-])c1ccc2c(c1)c(OCCN1CCCCC1)nn2Cc1ccccc1 [NV7] | – | 3.1 ± 1.05 | 24.4 ± 6.7 | – | – | 12.8 ± 0.13 | EC50 [5, 16]: 5.61 ± 0.69 µM |
| CN(C)CCOc1nn(Cc2ccccc2)c2ccc([N+](=O)[O-])cc12 [NV4] | 2.3 ± 0.4 | – | 67.1 ± 8.9 | – | ≤ 1 | ≤ 5 | IC50 ([3]; promastigotes, L. infantum): 0.52 ± 0.05 µM; EC50 [5, 16]: 12.3 ± 0.7 µM; EC50 [6, 18]: 3.42 ± 1.8 µM |
